Measured values taken from US7754462B2, “Enzyme catalysis in the presence of ionic liquids” (priority 2000, dated 2010).

Columns and labels:
Type in all cases: biochemical
[1] = tested on: Lipase from Alcaligines sp.; test: Enantioselective acylation of R,S-1-phenyl ethanol in ionic liquids
Procedure: (§1) 4.4 ml of an ionic liquid in accordance with Table 3 or tert-butylmethyl ether are mixed with 122 μl of vinyl acetate and 54 μl of 1-phenyl ethanol so that a substrate solution with approximately 0.1 mol/l of 1-phenyl ethanol and 0.3 mol/l of vinyl acetate is obtained. Each 1 mg of lyophilised lipase (>120 U/mg) is mixed with 0.4 ml of substrate solution, thoroughly mixed and incubated at 24° C. for 3-4 days, shaking slightly.
(§2) This hexane/isopropanol extract is used to determine the concentrations and enantiomer ratios of 1-phenyl ethanol and 1-phenylethyl acetate using HPLC. The conversion and the enantiomer excess were calculated from these concentrations (see Table 3).

[2] = tested on: Lipase from Pseudomonas sp.; test: as above; design: key: (+) good to better; (±) the same
Procedure: as §1
as §2, with “For further processing 100 μl of the reaction formulation is mixed with 1 ml of n-hexane/Isopropanol (97.5/2.5 v/v) and mixed thoroughly. This” for “This”
Each 3 mg of lyophilised lipase (400 U/mg) is mixed with 0.4 ml of a substrate solution as in Example 3. The further procedure corresponds to that described in Example 3.

[3] = biological target: T1, Lipase from Candida antarctica (Type B) (Moesziomyces antarcticus, UniProt P41365); test: Enantioselective acylation of R,S-1-phenylethanol in ionic liquids; conditions: 24° C., 3-4 days
Procedure: as §1, §2

[4] = biological target: T1, Lipase from Candida antarctica (Type B); test: Recycling of the lipase in ionic liquid by distillation; conditions: 40 min at 40° C.; distillation 85° C., 0.06 mbar
Procedure: 600 mg of lyophilised lipase (approx. 10 U/mg) is mixed with 4 ml of ionic liquid (BMIm^+(CF3SO2)2N^−), 1.2 ml of vinyl acetate and 0.7 ml 1-phenyl ethanol and thoroughly mixed. The reaction mixture is incubated for 40 min at 40° C.
The non-converted educts and the reaction product […] is then distilled off (85° C., 0.06 mbar).
The enzyme/ionic liquid mixture is cooled, re-mixed with 1.2 ml of vinyl acetate and 0.7 ml of 1-phenyl ethanol and again incubated for 40 min at 40° C.

[5] = tested on: Lipase from Candida antarctica (Type A); test: Enantioselective acylation of R,S-1-phenyl ethanol in ionic liquids
Procedure: as §1, §2

[6] = biological target: T2, Formate dehydrogenase from Candida boidinii (FDH) (Candida boidinii, UniProt O13437); test: NAD reduction by formate dehydrogenase; enzyme activity with buffer replaced by ionic liquid; design: key: (+) good to better; (±) the same; conditions: 25° C., pH 7
T2 sequence (O13437 1-364): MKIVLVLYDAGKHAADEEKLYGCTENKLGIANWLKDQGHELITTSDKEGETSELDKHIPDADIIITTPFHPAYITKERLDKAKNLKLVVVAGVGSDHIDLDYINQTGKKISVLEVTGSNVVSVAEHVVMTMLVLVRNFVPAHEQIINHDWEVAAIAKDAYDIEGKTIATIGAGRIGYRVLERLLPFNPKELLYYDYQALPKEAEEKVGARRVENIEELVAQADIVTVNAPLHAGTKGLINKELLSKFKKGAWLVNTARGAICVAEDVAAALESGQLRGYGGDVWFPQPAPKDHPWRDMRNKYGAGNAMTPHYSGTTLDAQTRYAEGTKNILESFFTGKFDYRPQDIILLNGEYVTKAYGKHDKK
Procedure: The FDH-catalysed oxidation of formic acid to carbon dioxide by the reduction of nicotinamide adenine dinucleotide (NAD^+ to NADH+H^+) is used as the test reaction to determine the enzyme activity. In the enzyme assay the increase in NADH with time at 25° C. is detected photometrically at a wavelength of 340 nm.
Composition of the enzyme assay: 1 ml buffer solution (50 mM triethanolamine hydrochloride, 1 mM dithiothreitol, hydrochloric acid) pH 7 is mixed with 0.1 ml of aqueous sodium formate solution (2.4 M) and 0.1 ml of enzyme solution (0.7 mg/ml, 8.4 U). The enzyme solution already contains the cofactor NAD (6 mM).

T1 sequence (P41365 26-342): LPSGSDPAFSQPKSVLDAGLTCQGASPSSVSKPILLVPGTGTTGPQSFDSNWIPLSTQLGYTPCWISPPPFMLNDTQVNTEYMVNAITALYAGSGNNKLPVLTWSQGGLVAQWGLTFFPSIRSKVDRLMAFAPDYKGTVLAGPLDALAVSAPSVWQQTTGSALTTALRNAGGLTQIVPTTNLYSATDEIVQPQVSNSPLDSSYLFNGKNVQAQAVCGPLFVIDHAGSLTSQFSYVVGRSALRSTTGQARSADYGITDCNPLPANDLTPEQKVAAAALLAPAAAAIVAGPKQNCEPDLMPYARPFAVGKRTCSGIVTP

Compound	Conversion compared to the standard reaction in tert-butylmethyl ether [1]	Enantiomer excess compared to the standard reaction in tert-butylmethyl ether [1]	Conversion compared to the standard reaction in tert-butylmethyl ether [2]	Enantiomer excess compared to the standard reaction in tert-butylmethyl ether [2]	Conversion compared to the standard reaction in tert-butylmethyl ether [3]	Enantiomer excess compared to the standard reaction in tert-butylmethyl ether [3]	lipase activity on repeated incubation and distilling off [4]	Conversion compared to the standard reaction in tert-butylmethyl ether [5]	Enantiomer excess compared to the standard reaction in tert-butylmethyl ether [5]	enzyme activity compared with the standard reaction in the buffer solution ([6]; 25 vol % ionic liquid)	enzyme activity compared with the standard reaction in the buffer solution ([6]; 50 vol % ionic liquid)	enzyme activity compared with the standard reaction in the buffer solution ([6]; 75 vol % ionic liquid)
CCCC[n+]1ccc(C)cc1.F[B-](F)(F)F [4-MBP^+ BF4^−, 4-methyl-butyl-pyridinium BF4^−]	±	+	±	+	+	+						
CCCCn1cc[n+](C)c1.O=S(=O)([N-]S(=O)(=O)C(F)(F)F)C(F)(F)F [BMIm^+ (CF3SO2)2N^−]			+	+	+	+	without the lipase activity diminishing					
CCCCn1cc[n+](C)c1.F[B-](F)(F)F [BMIm^+ BF4^−, Butyl-methyl-imidazolium BF4^−]	±	+			+	+		±	+			
CCCCn1cc[n+](C)c1.O=S(=O)([O-])C(F)(F)F [BMIm^+ CF3SO3^−, Butyl-methyl-imidazolium-trifluoro methane sulphonate (=triflate)]	±	+	+	+	+	+		+	+			
CCCCn1cc[n+](C)c1.F[P-](F)(F)(F)(F)F [BMIm^+ PF6^−, Butyl-methyl-imidazolium PF6^−]	±	+						+	+			
CCCCCCn1cc[n+](C)c1.F[B-](F)(F)F [HMIm^+ BF4^−, Hexyl-methyl-imidazolium BF4^−]	±	+			±	+		+	+			
CCCCCCCCC[n+]1ccn(C)c1.F[P-](F)(F)(F)(F)F [NMIm^+ PF6^−, Nonyl-methyl-imidazolium PF6^−]					±	+		+	+			
CCCCCCCCn1cc[n+](C)c1.F[B-](F)(F)F [OMIm^+ BF4^−, Octyl-methyl-imidazolium BF4^−]	±	+			+	+		+	±			
Methyl-methyl-imidazolium-methyl sulphate [MMIm^+ MeSO4^−]										±	+	+
